Experimental data reported in ChEMBL document CHEMBL1140093, “Structure-activity relationships for a novel series of dopamine D2-like receptor ligands based on N-substituted 3-aryl-8-azabicyclo[3.2.1]octan-3-ol” (J Med Chem, 2008).

What was measured:
[1] = biological target: T1, D(3) dopamine receptor (Homo sapiens, UniProt P35462); assay: Displacement of [125I]IABN from human dopamine D3 receptor expressed in HEK293 cells; type: cell-based
[2] = biological target: T2, D(2) dopamine receptor (Homo sapiens, UniProt P14416); assay: Displacement of [125I]IABN from human dopamine D2L receptor expressed in HEK293 cells; type: cell-based
[3] = biological target: T1, D(3) dopamine receptor; assay: Antagonist activity at dopamine D3 receptor; type: functional
[4] = biological target: T3, 5-hydroxytryptamine receptor 1A (Homo sapiens, UniProt P08908); assay: Displacement of [3H]8OH-DPAT from 5HT1A receptor
T3 sequence (P08908 whole entry): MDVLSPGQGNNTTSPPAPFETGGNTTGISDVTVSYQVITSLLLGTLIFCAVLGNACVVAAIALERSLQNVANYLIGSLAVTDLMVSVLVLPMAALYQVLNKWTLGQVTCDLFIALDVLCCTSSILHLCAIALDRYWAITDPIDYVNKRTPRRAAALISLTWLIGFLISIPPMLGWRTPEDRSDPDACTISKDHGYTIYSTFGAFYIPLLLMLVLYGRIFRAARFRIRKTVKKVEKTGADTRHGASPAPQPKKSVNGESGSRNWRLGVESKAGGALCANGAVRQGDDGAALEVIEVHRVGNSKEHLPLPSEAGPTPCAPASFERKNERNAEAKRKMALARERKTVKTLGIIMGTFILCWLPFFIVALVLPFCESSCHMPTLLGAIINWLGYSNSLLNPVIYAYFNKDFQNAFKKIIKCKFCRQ

[5] = biological target: 5-hydroxytryptamine receptor 2A (Homo sapiens, UniProt P28223); assay: Displacement of [3H]ketanserin from 5HT2A receptor
[6] = biological target: T4, 5-hydroxytryptamine receptor 2C (Homo sapiens, UniProt P28335); assay: Displacement of [3H]mesulergine from 5HT2C receptor
T4 sequence (P28335 whole entry): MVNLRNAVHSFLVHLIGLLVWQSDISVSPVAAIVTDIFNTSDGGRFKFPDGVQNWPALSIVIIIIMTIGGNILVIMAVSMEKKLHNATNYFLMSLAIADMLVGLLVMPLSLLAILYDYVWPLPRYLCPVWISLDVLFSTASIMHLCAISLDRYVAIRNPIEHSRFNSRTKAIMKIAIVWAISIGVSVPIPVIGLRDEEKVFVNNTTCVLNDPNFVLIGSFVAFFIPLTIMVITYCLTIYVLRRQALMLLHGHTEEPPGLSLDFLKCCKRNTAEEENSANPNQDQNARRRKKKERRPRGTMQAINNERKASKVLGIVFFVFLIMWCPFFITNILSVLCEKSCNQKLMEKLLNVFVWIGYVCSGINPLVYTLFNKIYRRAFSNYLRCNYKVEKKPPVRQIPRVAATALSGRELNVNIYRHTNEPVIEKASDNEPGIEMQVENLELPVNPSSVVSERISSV

[7] = biological target: D(1A) dopamine receptor (Homo sapiens, UniProt P21728); assay: Displacement of [3H]SCH23390 from dopamine D1 receptor
[8] = biological target: T2, D(2) dopamine receptor; assay: Antagonist activity at dopamine D2 receptor; type: functional
[9] = biological target: T5, D(4) dopamine receptor (Homo sapiens, UniProt P21917); assay: Displacement of [125I]IABN from human dopamine D4 receptor
T5 sequence (P21917 whole entry): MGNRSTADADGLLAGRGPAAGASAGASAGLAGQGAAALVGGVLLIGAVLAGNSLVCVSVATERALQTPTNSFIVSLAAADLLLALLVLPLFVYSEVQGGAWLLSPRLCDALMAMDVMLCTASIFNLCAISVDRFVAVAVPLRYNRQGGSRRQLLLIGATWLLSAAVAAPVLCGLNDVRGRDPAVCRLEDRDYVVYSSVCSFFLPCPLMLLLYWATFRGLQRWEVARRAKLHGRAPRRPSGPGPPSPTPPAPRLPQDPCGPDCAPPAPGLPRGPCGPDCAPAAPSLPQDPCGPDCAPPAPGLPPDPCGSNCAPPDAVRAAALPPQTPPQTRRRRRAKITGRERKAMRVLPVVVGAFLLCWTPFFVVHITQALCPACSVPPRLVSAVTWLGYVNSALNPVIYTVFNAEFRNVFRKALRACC

T2 sequence (P14416 whole entry): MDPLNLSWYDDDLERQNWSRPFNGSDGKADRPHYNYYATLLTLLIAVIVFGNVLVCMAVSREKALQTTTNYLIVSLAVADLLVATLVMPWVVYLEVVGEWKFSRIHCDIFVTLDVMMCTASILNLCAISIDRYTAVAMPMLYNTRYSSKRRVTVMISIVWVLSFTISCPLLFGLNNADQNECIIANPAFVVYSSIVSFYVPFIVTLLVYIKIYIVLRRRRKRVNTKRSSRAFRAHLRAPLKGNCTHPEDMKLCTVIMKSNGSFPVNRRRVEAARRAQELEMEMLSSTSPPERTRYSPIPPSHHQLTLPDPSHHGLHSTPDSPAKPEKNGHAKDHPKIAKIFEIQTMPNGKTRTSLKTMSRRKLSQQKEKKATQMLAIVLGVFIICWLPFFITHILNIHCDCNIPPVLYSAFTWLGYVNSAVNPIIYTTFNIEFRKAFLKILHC
T1 sequence (P35462 whole entry): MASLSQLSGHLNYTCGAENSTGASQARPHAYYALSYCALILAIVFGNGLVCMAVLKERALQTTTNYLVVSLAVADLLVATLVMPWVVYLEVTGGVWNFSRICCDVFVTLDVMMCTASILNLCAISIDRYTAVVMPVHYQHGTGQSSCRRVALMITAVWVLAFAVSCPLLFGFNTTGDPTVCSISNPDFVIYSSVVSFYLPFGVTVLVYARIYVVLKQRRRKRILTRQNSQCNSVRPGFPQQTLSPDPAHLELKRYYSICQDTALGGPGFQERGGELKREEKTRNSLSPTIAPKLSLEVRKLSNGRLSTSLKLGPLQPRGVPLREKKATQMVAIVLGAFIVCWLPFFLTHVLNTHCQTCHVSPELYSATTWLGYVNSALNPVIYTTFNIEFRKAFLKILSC
Chain of D(1A) dopamine receptor (P21728 whole entry): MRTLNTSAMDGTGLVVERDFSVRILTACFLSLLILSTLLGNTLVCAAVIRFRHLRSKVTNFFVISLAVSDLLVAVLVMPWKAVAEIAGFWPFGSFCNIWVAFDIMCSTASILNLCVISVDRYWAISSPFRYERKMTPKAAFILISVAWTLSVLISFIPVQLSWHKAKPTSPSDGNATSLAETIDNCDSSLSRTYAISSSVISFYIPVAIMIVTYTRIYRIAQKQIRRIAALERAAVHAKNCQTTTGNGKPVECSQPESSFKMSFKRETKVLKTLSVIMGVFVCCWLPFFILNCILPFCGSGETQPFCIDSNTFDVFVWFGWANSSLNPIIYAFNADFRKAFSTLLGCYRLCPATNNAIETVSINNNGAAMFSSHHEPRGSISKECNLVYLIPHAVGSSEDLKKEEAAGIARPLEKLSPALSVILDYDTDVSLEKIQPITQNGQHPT
Chain of 5-hydroxytryptamine receptor 2A (P28223 whole entry): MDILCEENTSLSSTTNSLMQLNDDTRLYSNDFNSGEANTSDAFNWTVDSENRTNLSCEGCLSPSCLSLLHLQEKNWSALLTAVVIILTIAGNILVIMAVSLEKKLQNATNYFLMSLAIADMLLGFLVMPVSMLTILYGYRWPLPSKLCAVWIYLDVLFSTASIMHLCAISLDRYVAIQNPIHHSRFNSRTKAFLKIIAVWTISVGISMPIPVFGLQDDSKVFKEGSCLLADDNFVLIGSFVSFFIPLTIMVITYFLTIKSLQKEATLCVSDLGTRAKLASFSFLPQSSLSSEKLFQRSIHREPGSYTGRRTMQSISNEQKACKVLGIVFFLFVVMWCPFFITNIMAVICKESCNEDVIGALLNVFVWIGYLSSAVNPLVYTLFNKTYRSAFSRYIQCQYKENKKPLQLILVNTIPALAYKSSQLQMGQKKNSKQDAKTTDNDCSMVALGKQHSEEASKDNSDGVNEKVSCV

Compound | Ki [1] [nM] | Ki [2] [nM] | also measured
O[C@@]1(c2cccc(Cl)c2Cl)C[C@H]2CC[C@@H](C1)N2Cc1csc2ccccc12 | 431 | 280 | 
O[C@@]1(c2ccc(Cl)cc2)C[C@H]2CC[C@@H](C1)N2Cc1coc2c1ccc1ccccc12 | 2 | 5.6 | 
COc1ccccc1[C@]1(O)C[C@H]2CC[C@@H](C1)N2Cc1c[nH]c2ccccc12 | 6410 | 2070 | 
O[C@@]1(c2ccc(Cl)cc2)C[C@H]2CC[C@@H](C1)N2Cc1coc2ccc(F)cc12 | 0.37 | 1.2 | 
O[C@@]1(c2ccc(Cl)c(Cl)c2)C[C@H]2CC[C@@H](C1)N2Cc1c[nH]c2ccccc12 | 6.35 |  | IC50 [3]: 10.2 nM; Ki [4]: > 10 µM; Ki [5]: 2.8 µM
O[C@@]1(c2ccc(Cl)cc2)C[C@H]2CC[C@@H](C1)N2Cc1coc2ccccc12 | 0.71 |  | Ki [6]: > 10 µM; IC50 [3]: 0.85 nM
COc1ccc2[nH]cc(CN3[C@@H]4CC[C@H]3C[C@](O)(c3ccc(Cl)cc3)C4)c2c1 | 21.2 |  | 
O[C@]1(c2ccc(Cl)c(Cl)c2)C[C@H]2CC[C@@H](C1)N2Cc1coc2ccccc12 | 0.34 | 1.7 | 
O[C@@]1(c2ccc(F)cc2)C[C@H]2CC[C@@H](C1)N2Cc1c[nH]c2ccccc12 | 31 |  | 
O[C@@]1(c2ccc(Br)cc2)C[C@H]2CC[C@@H](C1)N2Cc1coc2ccccc12 | 0.92 | 1.5 | 
O[C@@]1(c2cccc(Cl)c2Cl)C[C@H]2CC[C@@H](C1)N2Cc1coc2ccccc12 | 32.2 |  | 
O[C@@]1(c2cccc(Cl)c2Cl)C[C@H]2CC[C@@H](C1)N2Cc1c[nH]c2ccccc12 | 480 | 545 | 
O[C@]1(c2ccc(Cl)cc2)C[C@H]2CC[C@@H](C1)N2Cc1c[nH]c2ccccc12 | 15.5 | 33.4 | Ki [6]: > 10 µM; Ki [7]: 1220 nM; IC50 [8]: 48.3 nM; IC50 [3]: 12.3 nM; Ki [4]: > 10 µM; Ki [5]: 4.77 µM; Ki [9]: > 5000 nM
O[C@@]1(c2ccc(Cl)cc2)C[C@H]2CC[C@@H](C1)N2Cc1coc2ccc3ccccc3c12 | 8.4 | 11.7 | 
COc1ccc2[nH]cc(CN3[C@@H]4CC[C@H]3C[C@](O)(c3ccc(SC)cc3)C4)c2c1 | 1210 | 554 | 
COc1ccc2occ(CN3[C@@H]4CC[C@H]3C[C@](O)(c3ccc(Cl)cc3)C4)c2c1 (single isomer, unassigned) | 2.1 | 1.5 | 
O[C@@]1(c2ccc(Cl)cc2)C[C@H]2CC[C@@H](C1)N2Cc1csc2ccccc12 | 3.62 | 12.9 | Ki [6]: > 10 µM; Ki [7]: 3000 nM; IC50 [8]: 26.2 nM; IC50 [3]: 4.2 nM; Ki [4]: 1.72 µM; Ki [9]: 140 nM
CSc1ccc([C@]2(O)C[C@H]3CC[C@@H](C2)N3Cc2c[nH]c3ccccc23)cc1 | 541 | 565 | 
O[C@@]1(c2ccc(F)cc2)C[C@H]2CC[C@@H](C1)N2Cc1coc2ccccc12 | 1.2 | 4.9 | 
O[C@@]1(c2ccc(Cl)c(Cl)c2)C[C@H]2CC[C@@H](C1)N2Cc1coc2ccc(F)cc12 | 0.53 | 1.4 | 
OC1(c2ccc(Cl)cc2)CCN(Cc2c[nH]c3ccccc23)CC1 |  |  | IC50 [3]: 90.4 nM; Ki [9]: 1100 nM
O[C@@]1(c2ccc3ccccc3c2)C[C@H]2CC[C@@H](C1)N2Cc1c[nH]c2ccccc12 | 224 | 196 | 
O[C@@]1(c2ccc(Cl)cc2)C[C@H]2CC[C@@H](C1)N2Cc1n[nH]c2ccccc12 | 84.7 | 225 | 
